The record followed here is patent US20120101093A1, “SUBSTITUTED IMIDAZO[1,2-A]PYRIDINE DERIVATIVES, PHARMACEUTICAL COMPOSITIONS, AND METHODS OF USE AS BETA-SECRETASE INHIBITORS” (HIGH POINT PHARMACEUTICALS, LLC, priority 2009, published 2012).

In one test the target is T1, BACE-1 enzyme (Homo sapiens, UniProt P56817).
T1 construct: purchased R & D Systems 931AS
The test can be described thus: BACE Fluorescence Resonance Energy Transfer (FRET) Assay. To be noted: pH 4-4.5, 30 min pre-incubation, about 1.5 hours reaction. In kind it is biochemical. In short, it runs like this:
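BACE-1 enzyme pre-incubated 30 min with compound in 7.5% DMSO in 50 mM sodium acetate pH 4-4.5, 0.01% CHAPS, 0.0125% Triton X-100, 0.006% EDTA. Rhodamine/quencher peptide substrate added; ~1.5 h at room temperature, fluorescence read at 540/585 nm. IC50 or percent inhibition at one concentration.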

Test [1] concerns Aβ1-40 secreted from HEK293 cells stably expressing wildtype human APP695 protein (HEK-APPwt cells). The test can be described thus: Aβ Cell Based Assay (Aβ1-40 secretion, ELISA). To be noted: Homo sapiens, HEK293, 6 h, 6 hours incubation, reduction of Aβ1-40 secretion. On the procedure: Aβ Cell Based Assay Procedure
In the following assay, the proteolytic activity of BACE in cells exposed to varying concentrations of a compound of interest is measured by observing the amount of Aβ1-40 secreted from HEK293 cells (Human Embryonic Kidney epithelial cell line) stably expressing wildtype human APP695 protein (HEK-APPwt cells).
HEK-APPwt cells were grown in high glucose DMEM (Dulbecco's Modified Eagles Medium SIGMA Cat.# D5796) supplemented with 25 mM HEPES (4-(2-hydroxyethyl)-1-piperazineethanesulfonic acid) (pH 7.4) (Invitrogen Cat.# 15630-114), 0.1 mM NEAA (Non-essential Amino Acids) (BioWhittaker Cat. #13-114E), 10% fetal bovine serum (SIGMA Cat. #F4135) and 250 μg/mL hygromycin (Invitrogen Cat. #10687-010) in T-225 flasks at 37° C. with 5% CO2 and humidity control.
Test compounds were initially prepared in DMSO and diluted with DMEM media containing 2% FBS (Fetal bovine serum). Ten standard compound solutions were prepared having a range of concentrations. The standard compound solutions were used to determine the EC50 of the test compound. The range of concentrations chosen may depend on the compound's predicted potency.
To prepare the cells for the assay, a flask containing HEK-APPwt cells were trypsinized briefly (1 mL trypsin), and once the cells detached, 4 mL of 10% FBS-DMEM was added to the flask. The detached cells were centrifuged at 900 rpm for 5 min to form a pellet.
The HEK-APPwt cell pellet was re-suspended with 10 mL DMEM media containing 2% FBS. 80 μL of the cell suspension was added to each well of a 96-well cell culture plate to give 100×10^4cells/ml. 10 μL of a standard compound solution was added to each well of the 96-well cell culture plate followed by 10 μL of Alamar blue solution. The cells were incubated at 37° C. in a 5% CO2 incubator for 6 hours.
At the end of the incubation, the plates were removed from incubator, and the supernatant was collected. A≈1-40 concentration in the medium was measured by using a commercial Aβ1-X ELISA kit (IBL, Japan Cat. #27729). Briefly, the ELISA plates were coated with an anti-human AO (N)(82E1) mouse IgG monoclonal antibody. A horseradish peroxidase conjugated anti-human Aβ11-28 mouse IgG monoclonal antibody was used for detection. The cell culture supernatant was diluted with EIA buffer +protease inhibitors (kit buffer containing protease inhibitors (1 mL PI/30 mL buffer)). A 100 μL aliquot of the diluted supernatant was added to each well of the ELISA plate and incubated for 6 hrs at 4° C. The ELISA plate was washed 8 times with phosphate buffered saline (PBS) containing 0.05% Tween 20.
A 100 μL of detection antibody was then added and incubated for 1 hour at 4° C. The plate was washed 8 times with PBS buffer containing 0.05% Tween 20 followed by addition of 100 μL of the chromogen tetramethylbenzidine (TMB). The plate was incubated in the dark at room temperature for about 30 min and a stop solution (1N H2SO4) was added.
The intensity of the color developed was measured at 450 nm. The optical density at 450 nm (OD450) is proportional to the concentration of human Aβ1-40 secreted by the cell. As a reference, N-[N-(3,5-difluorophenacetyl-L-alanyl)]-S-phenylglycine t-butyl ester (DAPT, a γ-secretase inhibitor) was used to indicate 100% inhibition of BACE activity. Thus, the assay measures the ability of a compound of interest to reduce Aβ1-40 secretion. For select compounds, compound potency is reported in Table 3 as the EC50 by calculating the percent inhibition at all concentration levels and the data were fit with non-linear curve fitting algorithm using GraphPad Prism.
For orientation: In an ELISA, binding on a coated surface is turned into a signal by an enzyme label.

T1 sequence (P56817 46-457 limits assumed): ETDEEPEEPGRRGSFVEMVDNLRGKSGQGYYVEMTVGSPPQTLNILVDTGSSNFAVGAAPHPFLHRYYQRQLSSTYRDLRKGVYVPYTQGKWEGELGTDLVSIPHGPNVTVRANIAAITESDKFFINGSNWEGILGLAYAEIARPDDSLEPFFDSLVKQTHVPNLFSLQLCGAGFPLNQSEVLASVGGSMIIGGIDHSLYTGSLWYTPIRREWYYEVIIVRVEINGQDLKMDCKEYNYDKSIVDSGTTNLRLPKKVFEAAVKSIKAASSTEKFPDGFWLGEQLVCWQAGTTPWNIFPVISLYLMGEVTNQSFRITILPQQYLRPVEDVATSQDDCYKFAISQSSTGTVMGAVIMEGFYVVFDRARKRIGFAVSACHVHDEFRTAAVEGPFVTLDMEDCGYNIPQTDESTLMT

Take `Cc1cccc2nc(C(=O)Nc3nc4cc(OCc5ccccc5C(F)(F)F)ccc4[nH]3)cn12` [Example 42, 5-Methyl-imidazo[1,2-a]pyridine-2-carboxylic acid [5-(2-trifluoromethyl-benzyloxy)-1H-benzoimidazol-2-yl]-amide]: at BACE-1 enzyme, the IC50 stood at 0.38 µM. Moreover, a half-maximal response in test [1] (EC50) required 3.45 µM.

Compound `Cc1cccc2nc(C(=O)Nc3nc4cc(OCc5cc(F)cc(C(F)(F)F)c5)ccc4[nH]3)cn12` [Example 43, 5-Methyl-imidazo[1,2-a]pyridine-2-carboxylic acid [5-(3-fluoro-5-trifluoromethyl-benzyloxy)-1H-benzoimidazol-2-yl]-amide] showed an IC50 against BACE-1 enzyme of 0.3 µM. Moreover, the EC50 in test [1] was found to be 0.58 µM.

`Cc1cccc2nc(C(=O)Nc3nc4cc(-c5cccc(OC(F)(F)F)c5)ccc4[nH]3)cn12` [Example 46, 5-Methyl-imidazo[1,2-a]pyridine-2-carboxylic acid [5-(3-trifluoromethoxy-phenyl)-1H-benzoimidazol-2-yl]-amide] showed a half-maximal inhibitory concentration (IC50) at BACE-1 enzyme of 0.26 µM. In test [1], this compound gave an EC50 of 0.63 µM.

For `Cc1cccc2nc(C(=O)Nc3nc4cc(-c5ccc(Cl)c(C(F)(F)F)c5)ccc4[nH]3)cn12` [Example 47, 5-Methyl-imidazo[1,2-a]pyridine-2-carboxylic acid [5-(4-chloro-3-trifluoromethyl-phenyl)-1H-benzoimidazol-2-yl]-amide], on BACE-1 enzyme, the concentration for half-maximal inhibition (IC50) stood at 0.42 µM. Moreover, the concentration for a half-maximal effect (EC50) in test [1] came out at 0.08 µM.

`Cc1cccc2nc(C(=O)Nc3nc4cc(-c5ccc(F)c(C(F)(F)F)c5)ccc4[nH]3)cn12` [Example 48, 5-Methyl-imidazo[1,2-a]pyridine-2-carboxylic acid [5-(4-fluoro-3-trifluoromethyl-phenyl)-1H-benzoimidazol-2-yl]-amide] had an IC50 against BACE-1 enzyme of 0.49 µM. This compound also came in with an EC50 in test [1] of 0.18 µM.

`O=C(Nc1nc2cc(OCc3ccc(C(F)(F)F)cc3)ccc2[nH]1)c1cn2c(C(F)(F)F)cccc2n1` [Example 49, 5-Trifluoromethyl-imidazo[1,2-a]pyridine-2-carboxylic acid [5-(4-trifluoromethyl-benzyloxy)-1H-benzoimidazol-2-yl]-amide] gave a half-inhibitory concentration (IC50) at BACE-1 enzyme of 0.17 µM. The same compound gave an EC50 in test [1] of 8.76 µM.

Regarding `Cc1cccn2cc(C(=O)Nc3nc4cc(-c5ccc(C(F)(F)F)cc5)ccc4[nH]3)nc12` [Example 50, 8-Methyl-imidazo[1,2-a]pyridine-2-carboxylic acid [5-(4-trifluoromethyl-phenyl)-1H-benzoimidazol-2-yl]-amide], it took 0.32 µM to reach half-maximal inhibition on BACE-1 enzyme (IC50). The half-maximal effective concentration (EC50) in test [1] was 4.41 µM.

Regarding `Cc1cccn2cc(C(=O)Nc3nc4cc(-c5cccc(Cl)c5)ccc4[nH]3)nc12` [Example 51, 8-Methyl-imidazo[1,2-a]pyridine-2-carboxylic acid [5-(3-chloro-phenyl)-1H-benzoimidazol-2-yl]-amide], the concentration for half-maximal inhibition (IC50) against BACE-1 enzyme was 0.96 µM. The compound also came in with a concentration giving a half-maximal response (EC50) in test [1] of 1.84 µM.

For `O=C(Nc1nc2cc(OCc3ccc(C(F)(F)F)cc3)ccc2[nH]1)c1cn2cc(-c3ccccc3)ccc2n1` [Example 52, 6-Phenyl-imidazo[1,2-a]pyridine-2-carboxylic acid [5-(4-trifluoromethyl-benzyloxy)-1H-benzoimidazol-2-yl]-amide], at BACE-1 enzyme, the concentration for half-maximal inhibition (IC50) was found to be 5.28 µM. Further, the EC50 in test [1] was 0.51 µM.

Take `Cc1cccc2nc(C(=O)Nc3nc4cc(-c5cccc(C(F)(F)F)c5F)ccc4[nH]3)cn12` [Example 53, 5-Methyl-imidazo[1,2-a]pyridine-2-carboxylic acid [5-(2-fluoro-3-trifluoromethyl-phenyl)-1H-benzoimidazol-2-yl]-amide]: 0.26 µM corresponded to half-maximal inhibition against BACE-1 enzyme (IC50). Also, the EC50 in test [1] was 0.23 µM.

As to `COc1cc(-c2ccc3[nH]c(NC(=O)c4cn5c(C)cccc5n4)nc3c2)cc(C(F)(F)F)c1` [Example 54, 5-Methyl-imidazo[1,2-a]pyridine-2-carboxylic acid [5-(3-methoxy-5-trifluoromethyl-phenyl)-1H-benzoimidazol-2-yl]-amide], the IC50 on BACE-1 enzyme amounted to 0.39 µM. Also, a half-maximal response in test [1] (EC50) required 0.98 µM.

In turn, `O=C(Nc1nc2cc(-c3ccc(F)c(C(F)(F)F)c3)ccc2[nH]1)c1cn2c(C(F)(F)F)cccc2n1` [Example 55, 5-Trifluoromethyl-imidazo[1,2-a]pyridine-2-carboxylic acid [5-(4-fluoro-3-trifluoromethyl-phenyl)-1H-benzoimidazol-2-yl]-amide] registered an IC50 at BACE-1 enzyme of 0.26 µM. In addition, in test [1], a half-maximal effect (EC50) was put at 2.36 µM.

As for `Cc1cccc2nc(C(=O)Nc3nc4ccc(-c5cc(F)cc(Cl)c5)cc4[nH]3)cn12` [Example 56, 5-Methyl-imidazo[1,2-a]pyridine-2-carboxylic acid [6-(3-chloro-5-fluoro-phenyl)-1H-benzoimidazol-2-yl]-amide], the half-inhibitory concentration (IC50) at BACE-1 enzyme came out at 0.28 µM. A half-maximal effect in test [1] (EC50) was put at 0.24 µM.

As to `O=C(Nc1nc2cc(-c3ccc(F)c(C(F)(F)F)c3)ccc2[nH]1)c1cn2c(F)cccc2n1` [Example 58, 5-Fluoro-imidazo[1,2-a]pyridine-2-carboxylic acid [5-(4-fluoro-3-trifluoromethyl-phenyl)-1H-benzoimidazol-2-yl]-amide], on BACE-1 enzyme, the IC50 was 0.76 µM. Moreover, the response in test [1] was half-maximal at 0.4 µM (EC50).

In the case of `Cc1ccc2nc(C(=O)Nc3nc4cc(-c5cccc(C(F)(F)F)c5)ccc4[nH]3)cn2c1` [Example 59, 6-Methyl-imidazo[1,2-a]pyridine-2-carboxylic acid [5-(3-trifluoromethyl-phenyl)-1H-benzoimidazol-2-yl]-amide], on BACE-1 enzyme, the concentration for half-maximal inhibition (IC50) turned out to be 0.41 µM. In test [1], the EC50 was 3.16 µM.

At BACE-1 enzyme, `Cc1cccc2nc(C(=O)Nc3nc4cc(/C=C/c5ccc(C(F)(F)F)cc5)ccc4[nH]3)cn12` [Example 61, 5-Methyl-imidazo[1,2-a]pyridine-2-carboxylic acid {5-[(E)-2-(4-trifluoromethyl-phenyl)-vinyl]-1H-benzoimidazol-2-yl}-amide] returned an IC50 of 0.22 µM. In test [1], this compound came in with an EC50 of 0.28 µM.

As for `Cc1cccc2nc(C(=O)Nc3nc4cc(CCc5ccc(C(F)(F)F)cc5)ccc4[nH]3)cn12` [Example 62, 5-Methyl-imidazo[1,2-a]pyridine-2-carboxylic acid {5-[2-(4-trifluoromethyl-phenyl)-ethyl]-1H-benzoimidazol-2-yl}-amide], the 50% inhibitory concentration (IC50) at BACE-1 enzyme was determined as 0.4 µM. This compound showed an EC50 in test [1] of 0.87 µM.

With `Cc1cccc2nc(C(=O)Nc3nc4cc(-c5ccc(F)c(F)c5)ccc4[nH]3)cn12` [Example 63, 5-Methyl-imidazo[1,2-a]pyridine-2-carboxylic acid [5-(3,4-difluoro-phenyl)-1H-benzoimidazol-2-yl]-amide], the 50% inhibitory concentration (IC50) on BACE-1 enzyme turned out to be 1.15 µM. In test [1], this compound yielded a concentration giving a half-maximal response (EC50) of 1.32 µM.

The compound `Cc1cccc2nc(C(=O)Nc3nc4cc(-c5ccc(F)c(Cl)c5)ccc4[nH]3)cn12` [Example 64, 5-Methyl-imidazo[1,2-a]pyridine-2-carboxylic acid [5-(3-chloro-4-fluoro-phenyl)-1H-benzoimidazol-2-yl]-amide] yielded an IC50 on BACE-1 enzyme of 0.31 µM. Further, the half-maximal effective concentration (EC50) in test [1] stood at 0.14 µM.

For `Cc1cccn2cc(C(=O)Nc3nc4cc(-c5ccc(F)c(Cl)c5)ccc4[nH]3)nc12` [Example 65, 8-Methyl-imidazo[1,2-a]pyridine-2-carboxylic acid [5-(3-chloro-4-fluoro-phenyl)-1H-benzoimidazol-2-yl]-amide], the half-maximal inhibitory concentration (IC50) at BACE-1 enzyme is 0.3 µM. In test [1], this compound showed an EC50 of 0.96 µM.

As a reminder, the IC50 is the concentration that inhibits the measured activity by half. Lower therefore signals greater potency in that assay. Usually EC50 stands for the concentration giving half of the maximal effect. Low readings indicate higher potency in that assay, high ones lower potency in that assay.
